According to patent US10184933B2, “Compositions, systems and methods for gene expression noise drug screening and uses thereof” (priority 2013, dated 2019):
Where a name gives a salt, the structure may show the parent alone.

Test system: HIV-1 LTR promoter
Assay type: cell-based
Settings: not given

SMILES	identified as variability enhancer (VE) in noise screen	identified as variability suppressor (VS) in noise screen
N=C(N)NCCN1CCCCCCC1 [V21, guanethidine sulfate]	variability enhancers	
CCCSc1ccc2nc(NC(=O)OC)[nH]c2c1 [albendazole]	variability enhancers	
C[C@H]1O[C@@H](O[C@H]2[C@@H](O)C[C@H](O[C@H]3[C@@H](O)C[C@H](O[C@H]4CC[C@@]5(C)[C@H](CC[C@@H]6[C@@H]5C[C@@H](O)[C@]5(C)[C@@H](C7=CC(=O)OC7)CC[C@]65O)C4)O[C@@H]3C)O[C@@H]2C)C[C@H](O)[C@@H]1O [digoxin]	variability enhancers	
CNCCCC12CCC(c3ccccc31)c1ccccc12 [maprotiline hydrochloride]		variability suppressors
[H]/N=C(/N)N/C(=N/[H])NCCc1ccccc1 [phenformin hydrochloride]		variability suppressors
CC(=O)[O-].[Hg+][c]1ccccc1 [phenylmercuric acetate]	variability enhancers	

Same assay, conditions: 10 uM, 24 hours

SMILES	noise deviation of VM hit in the screen
Nc1ccn([C@@H]2O[C@H](CO)[C@@H](O)[C@@H]2O)c(=O)n1 [cytarabine, (β-D-arabinofuranosyl)cytosine]	+5 σ

Same assay, conditions: Pharmakon 1600 library, 10 uM, 24 hours, FIG. 10

SMILES	identified as variability enhancer (VE) in noise screen
CN(Cc1cnc2nc(N)nc(N)c2n1)c1ccc(C(=O)N[C@@H](CCC(=O)O)C(=O)O)cc1 (racemic) [methotrexate(+/−)]	variability enhancers
COC(=O)C1=CCCN(C)C1 [Arecoline hydrobromide]	variability enhancers
CC(=O)O[C@H]1C(=O)[C@@]2(C)[C@H]([C@H](OC(=O)c3ccccc3)[C@]3(O)C[C@H](OC(=O)[C@H](O)[C@@H](NC(=O)c4ccccc4)c4ccccc4)C(C)=C1C3(C)C)[C@]1(OC(C)=O)CO[C@@H]1C[C@@H]2O [Taxol]	variability enhancers
S=c1nc[nH]c2nc[nH]c12 [V9, mercaptopurine]	variability enhancers
CC(C)(C#N)c1cc(Cn2cncn2)cc(C(C)(C)C#N)c1 [V68, anastrozole]	variability enhancers
CS(=O)(=O)OCCCCOS(C)(=O)=O [V69, busulfan]	variability enhancers
Nc1nc2[nH]cc(CCc3ccc(C(=O)N[C@@H](CCC(=O)O)C(=O)O)cc3)c2c(=O)[nH]1 [V74, pemetrexed]	variability enhancers
Nc1c2ccccc2nc2ccccc12 [aminacrine]	variability enhancers
Cl.N=C(N)NCCC[C@H](N)C(=O)O [arginine hydrochloride]	variability enhancers
C[N+](C)(C)CC(O)CC(=O)[O-].Cl (stereo not drawn) [carnitine hydrochloride]	variability enhancers
Nc1nc(Cl)nc2c1ncn2[C@@H]1O[C@H](CO)[C@@H](O)[C@@H]1F [clofarabine]	variability enhancers
C[C@H]1O[C@@H](O[C@H]2[C@@H](O)C[C@H](O[C@H]3[C@@H](O)C[C@H](O[C@H]4CC[C@@]5(C)[C@H](CC[C@@H]6[C@@H]5CC[C@]5(C)[C@@H](C7=CC(=O)OC7)CC[C@]65O)C4)O[C@@H]3C)O[C@@H]2C)C[C@H](O)[C@@H]1O [digitoxin]	variability enhancers
CC(CCc1ccc(O)cc1)NCCc1ccc(O)c(O)c1 (stereo not drawn) [dobutamine hydrochloride]	variability enhancers
CCN1CC(CCN2CCOCC2)C(c2ccccc2)(c2ccccc2)C1=O (stereo not drawn) [doxapram hydrochloride]	variability enhancers
C[C@@H](O)CN(CCN(C[C@@H](C)O)C[C@@H](C)O)C[C@@H](C)O [editol]	variability enhancers
O=C1OC2(c3ccccc31)c1cc(I)c(O)c(I)c1Oc1c2cc(I)c(O)c1I [erythrosine sodium]	variability enhancers
COC(=O)Nc1nc2ccc(Sc3ccccc3)cc2[nH]1 [fenbendazole]	variability enhancers
COC1=CC(=O)C[C@@H](C)[C@]12Oc1c(Cl)c(OC)cc(OC)c1C2=O [griseofulvin]	variability enhancers
CCc1c2c(nc3ccc(OC(=O)N4CCC(N5CCCCC5)CC4)cc13)-c1cc3c(c(=O)n1C2)COC(=O)[C@]3(O)CC [irinotecan hydrochloride]	variability enhancers
O=C(O)c1nn(Cc2ccc(Cl)cc2Cl)c2ccccc12 [lonidamine]	variability enhancers
N[C@@H](Cc1ccc(N(CCCl)CCCl)cc1)C(=O)O [melphalan]	variability enhancers
CO[C@@]12[C@H](COC(N)=O)C3=C(C(=O)C(C)=C(N)C3=O)N1C[C@@H]1N[C@@H]12 [mitomycin c]	variability enhancers
CCN(CC)C(=O)c1cccnc1 [nikethamide]	variability enhancers
C[C@@H]1O[C@@H](O[C@H]2C[C@@H](O)[C@]3(CO)[C@H]4[C@H](O)C[C@]5(C)[C@@H](C6=CC(=O)OC6)CC[C@]5(O)[C@@H]4CC[C@]3(O)C2)[C@H](O)[C@H](O)[C@H]1O [ouabain]	variability enhancers
COC(=O)Nc1nc2ccc([S+]([O-])c3ccccc3)cc2[nH]1 (stereo not drawn) [oxfendazole]	variability enhancers

Same assay, conditions: Pharmakon 1600 library, 10 uM, 24 hours, FIG. 12

SMILES	identified as variability suppressor (VS) in noise screen
COc1ccc(Cc2nccc3cc(OC)c(OC)cc23)cc1OC [Papaverine hydrochloride]	variability suppressors
Nc1ncnc2c1ncn2[C@@H]1O[C@H](COP(=O)(O)O)[C@@H](O)[C@H]1O [adenosine phosphate]	variability suppressors
CN(C)CCCOc1nn(Cc2ccccc2)c2ccccc12 [benzydamine hydrochloride]	variability suppressors
Cc1ccc2c(Br)cc(Br)c(OC(=O)c3ccccc3)c2n1 [broxaldine]	variability suppressors
C[C@@H]1C[C@@H]([C@H](O)CC2CC(=O)NC(=O)C2)C(=O)[C@@H](C)C1 [cycloheximide]	variability suppressors
COP(=O)(OC)OC=C(Cl)Cl [dichlorvos]	variability suppressors
CN1C[C@H](C(=O)N[C@]2(C)O[C@@]3(O)[C@@H]4CCCN4C(=O)[C@H](Cc4ccccc4)N3C2=O)C=C2c3cccc4[nH]cc(c34)C[C@H]21 [ergotamine tartrate]	variability suppressors
N#Cc1nn(-c2c(Cl)cc(C(F)(F)F)cc2Cl)c(N)c1[S+]([O-])C(F)(F)F (stereo not drawn) [fipmnil, fipronil]	variability suppressors
CCCCCC(=O)O[C@]1(C(C)=O)CC[C@H]2[C@@H]3CCC4=CC(=O)CC[C@]4(C)[C@H]3CC[C@@]21C [hydroxyprogesterone caproate]	variability suppressors
c1ccc2c(c1)Nc1ccccc1S2 [phenothiazine]	variability suppressors
